# Assay results: paper PMC12081876, “Identification of PTGR2 inhibitors as a new therapeutic strategy for diabetes and obesity” (EMBO Molecular Medicine, 2025)
# “And” between values parts separate entries of the source, which are not always exact repeats. Equal entries are not always repeated.
# Assays:
# [1] = test system: HFHSD-fed obese C57BL6/J mice; test: Insulin tolerance test (ITT); type: in vivo, mouse; design: Figure 2I Average (glucose, ITT) / ITT / ITT glucose, Average / Blood glucose during insulin tolerance test (Figure 5M), Average: unit not given here; details: for ITT glucose, Average: BPRPT0245 100 mg/kg/day, group average (Figure 5M); for ITT glucose, individual mice: individual mouse values (Figure 5M, sheet BPRPT0245), in mg/dL (unit assumed)
# Protocol: (§1) Glucose tolerance was evaluated by the oral (OGTT) and intraperitoneal glucose tolerance test (ipGTT) after a 6-h fast. For the OGTT, glucose water (1 mg/g) was given by oral gavage, and tail blood glucose was measured with a glucometer (ACCU-CHEK Performa, Roche) at 0, 15, 30, 45, 60, 90, and 120 min. For the ipGTT, tail blood glucose was measured at 0, 15, 30, 45, 60, 90, and 120 min after intraperitoneal injection of glucose water (1 mg/g). For the insulin tolerance test (ITT), mice were fasted for 4 h and then injected intraperitoneally with 1 U/kg of insulin (Humulin R, Eli Lilly). Tail blood glucose was measured at 0, 15, 30, 45, 60, 90, 120, and 180 min.
# [2] = test system: HFHSD-fed obese C57BL6/J mice; test: Intraperitoneal glucose tolerance test (ipGTT); type: in vivo, mouse; design: Figure 2H Average (glucose, ipGTT) / ipGTT / ipGTT glucose, Average / Blood glucose during glucose tolerance test (Figure 5L), Average: unit not given here; details: for ipGTT glucose, Average: BPRPT0245 100 mg/kg/day, group average (Figure 5L); for ipGTT glucose, individual mice: individual mouse values (Figure 5L, sheet BPRPT0245), in mg/dL (unit assumed)
# Protocol: as §1
# [3] = test system: differentiated 3T3-L1 adipocytes; test: Insulin-stimulated glucose uptake assay by (3H)2-deoxyglucose; type: cell-based, mouse; details: differentiated 3T3-L1 adipocytes
# [4] = test system: HFHSD-fed obese C57BL6/J mice; test: Body weight / diet-induced obesity in HFHSD-fed mice; type: in vivo, mouse; details: for Body weight, Avg: BPRPT0245 100 mg/kg/day (Figure 5J); for Body weight, Avg / Body weight, Average / Body weight (individual mouse): in g (unit assumed); for Body weight, Average / Body weight (individual mouse): Figure 5J; for Body weight, Average: 100 mg/kg/day; for Body weight (individual mouse): BPRPT0245 group
# [5] = 100 mg/kg/day oral, HFHSD-fed mice, vs vehicle
structure (smiles),measurement,setting,value
Cc1[nH]c2nc(C(C)N3CCN(c4ccccc4)CC3)nn2c(=O)c1Cc1ccc(F)cc1 (stereo not shown) [BPRPT0245],"ITT glucose, Average",[1]; 0 minutes,210.867
same,"ITT glucose, individual mice",[1]; 0 minutes,210 and 207 and 221 and 237 and 223 and 175 and 211 and 215 and 171 and 203 and 242 and 227 and 190
same,insulin sensitivity (ITT),[1]; [5],improved
same,"ITT glucose, Average",[1]; 15 minutes,143.067
same,"ITT glucose, individual mice",[1]; 15 minutes,156 and 120 and 180 and 189 and 164 and 136 and 112 and 129 and 113 and 144 and 148 and 135 and 145
same,"ITT glucose, Average","[1]; 30 minutes, 100 mg/kg/day",94.067 and 94.0667
same,"ITT glucose, individual mice",[1]; 30 minutes,106 and 97 and 111 and 100 and 102 and 82 and 74 and 96 and 105 and 107 and 84 and 69 and 88
same,"ITT glucose, Average","[1]; 45 minutes, 100 mg/kg/day",78.667 and 78.6667
same,"ITT glucose, individual mice",[1]; 45 minutes,95 and 77 and 90 and 86 and 83 and 78 and 69 and 70 and 74 and 85 and 61 and 71
same,"ITT glucose, Average",[1]; 60 minutes,69.8
same,"ITT glucose, individual mice",[1]; 60 minutes,65 and 78 and 72 and 69 and 82 and 52 and 61 and 71 and 75 and 90 and 68 and 59
same,"ITT glucose, Average","[1]; 90 minutes, 100 mg/kg/day",59.667 and 59.6667
same,"ITT glucose, individual mice",[1]; 90 minutes,57 and 51 and 69 and 75 and 72 and 54 and 65 and 46 and 45 and 59 and 84 and 67 and 53
same,"ITT glucose, Average","[1]; 120 minutes, 100 mg/kg/day",71.467 and 71.4667
same,"ITT glucose, individual mice",[1]; 120 minutes,61 and 65 and 87 and 74 and 76 and 66 and 70 and 69 and 114 and 57 and 56
same,"ITT glucose, Average","[1]; 180 minutes, 100 mg/kg/day",90.933 and 90.9333
same,"ITT glucose, individual mice",[1]; 180 minutes,83 and 84 and 113 and 70 and 94 and 69 and 85 and 73 and 98 and 104 and 130 and 99 and 76
same,"ipGTT glucose, Average",[2]; 0 minute,153.667
same,"ipGTT glucose, individual mice",[2]; 0 minute,129 and 127 and 202 and 168 and 162 and 152 and 179 and 142 and 147 and 175 and 150 and 108 and 169
same,glucose tolerance (ipGTT),[2]; [5],improved glucose tolerance
same,"ipGTT glucose, Average",[2]; 15 minute,305
same,"ipGTT glucose, individual mice",[2]; 15 minute,325 and 328 and 302 and 300 and 251 and 345 and 316 and 291 and 297 and 290 and 312 and 319 and 271 and 303
same,"ipGTT glucose, Average",[2]; 30 minute,285.933
same,"ipGTT glucose, individual mice",[2]; 30 minute,318 and 250 and 316 and 269 and 323 and 308 and 260 and 273 and 295 and 280 and 325 and 283 and 289 and 215 and 285
same,"ipGTT glucose, Average",[2]; 45 minute,242.333
same,"ipGTT glucose, individual mice",[2]; 45 minute,261 and 181 and 275 and 209 and 208 and 318 and 231 and 278 and 227 and 225 and 336 and 288 and 173 and 200
same,"ipGTT glucose, Average",[2]; 60 minute,219.733
same,"ipGTT glucose, individual mice",[2]; 60 minute,262 and 155 and 167 and 252 and 207 and 264 and 223 and 275 and 201 and 277 and 228 and 194 and 179 and 205
same,"ipGTT glucose, Average",[2]; 90 minute,192.133
same,"ipGTT glucose, individual mice",[2]; 90 minute,204 and 144 and 134 and 174 and 173 and 260 and 232 and 213 and 160 and 193 and 231 and 169 and 117 and 218
same,"ipGTT glucose, Average",[2]; 120 minute,185.4
same,"ipGTT glucose, individual mice",[2]; 120 minute,218 and 166 and 140 and 179 and 201 and 221 and 215 and 198 and 168 and 199 and 217 and 208 and 174 and 111
same,insulin-stimulated glucose uptake,[3],augmented insulin-stimulated glucose uptake of differentiated 3T3-L1 adipocytes
same,diet-induced obesity (body weight),[4]; [5],significantly prevented diet-induced obesity
same,"Body weight, Avg",[4]; time point 0,30.59
same,"Body weight, Avg",[4]; time point 1,31.2
same,"Body weight, Avg",[4]; time point 2,31.673
same,"Body weight, Avg",[4]; time point 3,32.167
same,"Body weight, Avg",[4]; time point 4,32.92
same,"Body weight, Avg",[4]; time point 5,32.837
same,"Body weight, Avg",[4]; time point 6,33.673
same,"Body weight, Avg",[4]; time point 7,33.323
same,"Body weight, Avg",[4]; time point 8,33.923
same,"Body weight, Avg",[4]; time point 9,34.59
same,"Body weight, Avg",[4]; time point 10,35.623
same,"Body weight, Avg",[4]; time point 11,36.193
same,"Body weight, Avg",[4]; time point 12,37.113
same,"Body weight, Avg",[4]; time point 13,36.957
same,"Body weight, Avg",[4]; time point 14,38.33
same,"Body weight, Avg",[4]; time point 15,38.607
same,"Body weight, Avg",[4]; time point 16,39.303
same,"Body weight, Avg",[4]; time point 17,40.533
same,"Body weight, Avg",[4]; time point 18,40.933
same,"Body weight, Avg",[4]; time point 19,42.11
same,"Body weight, Avg",[4]; time point 20,41.483
same,"Body weight, Avg",[4]; time point 21,42.933
same,"Body weight, Avg",[4]; time point 22,43.33
same,"Body weight, Avg",[4]; time point 23,44.06
same,"Body weight, Avg",[4]; time point 24,44.36
same,"Body weight, Avg",[4]; time point 25,45.28
same,"Body weight, Average",[4]; week 0,30.59
same,Body weight (individual mouse),[4]; week 0,30 and 33.8 and 29.8 and 28.35
same,"Body weight, Average",[4]; week 1,31.2
same,Body weight (individual mouse),[4]; week 1,30.45 and 34.45 and 30.15 and 29.55
same,"Body weight, Average",[4]; week 2,31.6733
same,Body weight (individual mouse),[4]; week 2,31.05 and 34.25 and 30.6 and 30.25
same,"Body weight, Average",[4]; week 3,32.1667
same,Body weight (individual mouse),[4]; week 3,31.8 and 34.4 and 30.9 and 31.9
same,"Body weight, Average",[4]; week 4,32.92
same,Body weight (individual mouse),[4]; week 4,32.8 and 36.5 and 31.8 and 33.15
same,"Body weight, Average",[4]; week 5,32.8367
same,Body weight (individual mouse),[4]; week 5,34.2 and 36 and 31.6
same,"Body weight, Average",[4]; week 6,33.6733
same,Body weight (individual mouse),[4]; week 6,34.5 and 37.15 and 31.9
same,"Body weight, Average",[4]; week 7,33.3233
same,Body weight (individual mouse),[4]; week 7,31.45 and 36.9 and 31.75
same,"Body weight, Average",[4]; week 8,33.9233
same,Body weight (individual mouse),[4]; week 8,34.8 and 36.35 and 31.55
same,"Body weight, Average",[4]; week 9,34.59
same,Body weight (individual mouse),[4]; week 9,35.75 and 38 and 32.05 and 35.25
same,"Body weight, Average",[4]; week 10,35.6233
same,Body weight (individual mouse),[4]; week 10,38.1 and 37.65 and 32.65 and 35.65
same,"Body weight, Average",[4]; week 11,36.1933
same,Body weight (individual mouse),[4]; week 11,39.55 and 38.45 and 32.7 and 35.65
same,"Body weight, Average",[4]; week 12,37.1133
same,Body weight (individual mouse),[4]; week 12,40.35 and 39.35 and 33.6 and 37.1
same,"Body weight, Average",[4]; week 13,36.9567
same,Body weight (individual mouse),[4]; week 13,40.15 and 39.25 and 33.15 and 37.05
same,"Body weight, Average",[4]; week 14,38.33
same,Body weight (individual mouse),[4]; week 14,42.7 and 39.9 and 33.45 and 38.65
same,"Body weight, Average",[4]; week 15,38.6067
same,Body weight (individual mouse),[4]; week 15,43.6 and 39.65 and 33.2 and 38.2
same,"Body weight, Average",[4]; week 16,39.3033
same,Body weight (individual mouse),[4]; week 16,45.5 and 40.05 and 32.8 and 39.05
same,"Body weight, Average",[4]; week 17,40.5333
same,Body weight (individual mouse),[4]; week 17,47.45 and 41.6 and 33.85 and 39.8
same,"Body weight, Average",[4]; week 18,40.9333
same,Body weight (individual mouse),[4]; week 18,47.8 and 41.55 and 34.1 and 40.8
same,"Body weight, Average",[4]; week 19,42.11
same,Body weight (individual mouse),[4]; week 19,50.9 and 42.65 and 34.9 and 42.2
same,"Body weight, Average",[4]; week 20,41.4833
same,Body weight (individual mouse),[4]; week 20,50.45 and 41.95 and 34.25 and 41.75
same,"Body weight, Average",[4]; week 21,42.9333
same,Body weight (individual mouse),[4]; week 21,52.5 and 42.9 and 35.35 and 43.3
same,"Body weight, Average",[4]; week 22,43.33
same,Body weight (individual mouse),[4]; week 22,53.9 and 43.35 and 35.75 and 44.95
same,"Body weight, Average",[4]; week 23,44.06
same,Body weight (individual mouse),[4]; week 23,55.05 and 46.1 and 36.75 and 45.25
same,"Body weight, Average",[4]; week 24,44.36
same,Body weight (individual mouse),[4]; week 24,50.35 and 46.35 and 37 and 46.4
same,"Body weight, Average",[4]; week 25,45.28
same,Body weight (individual mouse),[4]; week 25,54.2 and 47.6 and 36.05 and 48.2
